Results taken from patent US6608082B1, “Treatment of erectile dysfunction using isoquinoline compound melanocortin receptor ligands” (Lion Bioscience AG, priority 1998, dated 2003).

Columns and labels:
[1] = biological target: T1, MCR-1 (Homo sapiens, UniProt Q01726); test: Melanocortin receptor binding assay, competition with 125I-HP 467, HEK 293 cells expressing hMCR-1; conditions: inhibition of binding of 125I-HP 467, HEK 293 cells expressing MCR-1, TRG 2414 library; for IC50: read-out: MC-1 IC50
T1 construct: expressed in transfected cells; host or cells: HEK 293
Method in brief: (§1)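 Test compounds compete on intact HEK 293 cells carrying hMCR-1 (2×10^4 per tube) or hMCR-4 (4×10^3 per tube), suspended in PBS, 10% calf serum, 1 mM CaCl2.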

[2] = biological target: T2, MCR-4 (Homo sapiens, UniProt P32245); test: Melanocortin receptor binding assay, competition with 125I-HP 467, HEK 293 cells expressing hMCR-4; conditions: inhibition of binding of 125I-HP 467, HEK 293 cells expressing MCR-4, TRG 2414 library; for IC50: read-out: MC-4 IC50
T2 construct: expressed in transfected cells; host or cells: HEK 293
Method in brief: as §1

T2 sequence (P32245 whole entry): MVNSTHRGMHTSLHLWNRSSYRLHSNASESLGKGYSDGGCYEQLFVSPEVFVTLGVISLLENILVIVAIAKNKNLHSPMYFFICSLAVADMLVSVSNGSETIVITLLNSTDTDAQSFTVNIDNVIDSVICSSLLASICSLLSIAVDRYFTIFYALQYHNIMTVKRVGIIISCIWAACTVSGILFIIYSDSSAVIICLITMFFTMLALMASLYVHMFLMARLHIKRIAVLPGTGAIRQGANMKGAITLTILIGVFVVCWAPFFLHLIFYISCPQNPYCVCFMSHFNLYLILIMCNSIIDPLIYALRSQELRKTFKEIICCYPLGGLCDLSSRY
T1 sequence (Q01726 whole entry): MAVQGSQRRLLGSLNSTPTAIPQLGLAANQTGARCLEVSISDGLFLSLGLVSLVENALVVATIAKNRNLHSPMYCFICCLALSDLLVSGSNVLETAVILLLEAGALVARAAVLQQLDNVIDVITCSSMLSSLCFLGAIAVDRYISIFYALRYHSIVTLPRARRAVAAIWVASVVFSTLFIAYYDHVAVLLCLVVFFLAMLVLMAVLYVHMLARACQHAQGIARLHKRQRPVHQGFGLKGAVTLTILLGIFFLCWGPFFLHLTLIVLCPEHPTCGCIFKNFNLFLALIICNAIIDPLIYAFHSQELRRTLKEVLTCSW

IC50 [1] [µM] | IC50 [2] [µM] | MC-1 IC50 [1] | MC-4 IC50 [2] | Compound
2.65 | 2.6 | – | – | COc1ccc(CCNCC2c3ccccc3CN(CCCCC(CN)NCc3ccccc3)C2c2ccc(Cl)cc2Cl)cc1 (centres unmarked) [TRG 2414-27]
13.9 | 7.42 | – | – | COc1ccc(CCNCC2c3ccccc3CN(CCCCC(CN)NCC(C)c3ccc(CC(C)C)cc3)C2c2ccc(Cl)cc2Cl)cc1 (centres unmarked) [TRG 2414-28]
5.66 | 4.4 | – | – | NCC(N)CCCCN1Cc2ccccc2C(CNCc2ccccc2)C1c1ccc(Cl)cc1Cl (centres unmarked) [TRG 2414-29]
5.39 | 6.21 | – | – | NCC(CCCCN1Cc2ccccc2C(CNCc2ccccc2)C1c1ccc(Cl)cc1Cl)NCCc1ccccc1 (centres unmarked) [TRG 2414-30]
3.9 | 7.03 | – | – | NCC(CCCCN1Cc2ccccc2C(CNCc2ccccc2)C1c1ccc(Cl)cc1Cl)NCc1ccccc1 (centres unmarked) [TRG 2414-31]
28.3 | 32.1 | – | – | CC(C)Cc1ccc(C(C)CNC(CN)CCCCN2Cc3ccccc3C(CNCc3ccccc3)C2c2ccc(Cl)cc2Cl)cc1 (centres unmarked) [TRG 2414-32]
3.55 | 4.42 | – | – | NCC(CCCCN1Cc2ccccc2C(CNC2CCCCCC2)C1c1ccc(Cl)cc1Cl)NCCc1ccccc1 (centres unmarked) [TRG 2414-34]
2.17 | 5.67 | – | – | NCC(CCCCN1Cc2ccccc2C(CNC2CCCCCC2)C1c1ccc(Cl)cc1Cl)NCc1ccccc1 (centres unmarked) [TRG 2414-35]
8.65 | 9.92 | – | – | CC(C)Cc1ccc(C(C)CNC(CN)CCCCN2Cc3ccccc3C(CNC3CCCCCC3)C2c2ccc(Cl)cc2Cl)cc1 (centres unmarked) [TRG 2414-36]
1.92 | 3.96 | – | – | NCC(CCCCN1Cc2ccccc2C(CNC2CCCCC2)C1c1ccc(Cl)cc1Cl)NCCc1ccccc1 (centres unmarked) [TRG 2414-38]
8.64 | 17.5 | – | – | CC(C)Cc1ccc(C(C)CNC(CN)CCCCN2Cc3ccccc3C(CNC3CCCCC3)C2c2ccc(Cl)cc2Cl)cc1 (centres unmarked) [TRG 2414-40]
34.2 | 15.6 | – | – | NCC(N)CCCCN1Cc2ccccc2C(CNCc2ccccc2C(F)(F)F)C1c1cc(C(F)(F)F)cc(C(F)(F)F)c1 (centres unmarked) [TRG 2414-41]
32.8 | 30.2 | – | – | NCC(CCCCN1Cc2ccccc2C(CNCc2ccccc2C(F)(F)F)C1c1cc(C(F)(F)F)cc(C(F)(F)F)c1)NCCc1ccccc1 (centres unmarked) [TRG 2414-42]
56.9 | 42 | – | – | NCC(CCCCN1Cc2ccccc2C(CNCc2ccccc2C(F)(F)F)C1c1cc(C(F)(F)F)cc(C(F)(F)F)c1)NCc1ccccc1 (centres unmarked) [TRG 2414-43]
– | – | no fit | no fit | CC(C)Cc1ccc(C(C)CNC(CN)CCCCN2Cc3ccccc3C(CNCc3ccccc3C(F)(F)F)C2c2cc(C(F)(F)F)cc(C(F)(F)F)c2)cc1 (centres unmarked) [TRG 2414-44]
6.34 | 0.92 | – | – | CCOc1ccccc1CNCC1c2ccccc2CN(CCCCC(N)CN)C1c1cc(C(F)(F)F)cc(C(F)(F)F)c1 (centres unmarked) [TRG 2414-45]
6.54 | 4.25 | – | – | CCOc1ccccc1CNCC1c2ccccc2CN(CCCCC(CN)NCCc2ccccc2)C1c1cc(C(F)(F)F)cc(C(F)(F)F)c1 (centres unmarked) [TRG 2414-46]
7.74 | 7.51 | – | – | CCOc1ccccc1CNCC1c2ccccc2CN(CCCCC(CN)NCc2ccccc2)C1c1cc(C(F)(F)F)cc(C(F)(F)F)c1 (centres unmarked) [TRG 2414-47]
33.5 | 38.8 | – | – | CCOc1ccccc1CNCC1c2ccccc2CN(CCCCC(CN)NCC(C)c2ccc(CC(C)C)cc2)C1c1cc(C(F)(F)F)cc(C(F)(F)F)c1 (centres unmarked) [TRG 2414-48]
3.77 | 0.32 | – | – | COc1ccccc1CCNCC1c2ccccc2CN(CCCC[C@H](N)CN)C1c1cc(C(F)(F)F)cc(C(F)(F)F)c1 (some centres unmarked) [TRG 2414-49]
8.09 | 4.94 | – | – | COc1ccccc1CCNCC1c2ccccc2CN(CCCCC(CN)NCCc2ccccc2)C1c1cc(C(F)(F)F)cc(C(F)(F)F)c1 (centres unmarked) [TRG 2414-50]
6.45 | 2.16 | – | – | COc1ccccc1CCNCC1c2ccccc2CN(CCCCC(CN)NCc2ccccc2)C1c1cc(C(F)(F)F)cc(C(F)(F)F)c1 (centres unmarked) [TRG 2414-51]
9.78 | 0.64 | – | – | NCC(N)CCCCN1Cc2ccccc2C(CNCCc2cccc(Cl)c2)C1c1cc(C(F)(F)F)cc(C(F)(F)F)c1 (centres unmarked) [TRG 2414-53]
9.81 | 3.06 | – | – | NCC(CCCCN1Cc2ccccc2C(CNCCc2cccc(Cl)c2)C1c1cc(C(F)(F)F)cc(C(F)(F)F)c1)NCCc1ccccc1 (centres unmarked) [TRG 2414-54]
12.5 | 3.12 | – | – | NCC(CCCCN1Cc2ccccc2C(CNCCc2cccc(Cl)c2)C1c1cc(C(F)(F)F)cc(C(F)(F)F)c1)NCc1ccccc1 (centres unmarked) [TRG 2414-55]
– | 42.6 | no fit | – | CC(C)Cc1ccc(C(C)CNC(CN)CCCCN2Cc3ccccc3C(CNCCc3cccc(Cl)c3)C2c2cc(C(F)(F)F)cc(C(F)(F)F)c2)cc1 (centres unmarked) [TRG 2414-56]

IC50 [1] [µM] | IC50 [2] [µM] | MC-1 IC50 [1] | MC-4 IC50 [2] | Compound
7.7 | 1.55 | – | – | COc1cccc(CNCC2c3ccccc3CN(CCCCC(N)CN)C2c2cc(C(F)(F)F)cc(C(F)(F)F)c2)c1 (centres unmarked) [TRG 2414-57]
6.72 | 3.45 | – | – | COc1cccc(CNCC2c3ccccc3CN(CCCCC(CN)NCCc3ccccc3)C2c2cc(C(F)(F)F)cc(C(F)(F)F)c2)c1 (centres unmarked) [TRG 2414-58]
9.64 | 6.76 | – | – | COc1cccc(CNCC2c3ccccc3CN(CCCCC(CN)NCc3ccccc3)C2c2cc(C(F)(F)F)cc(C(F)(F)F)c2)c1 (centres unmarked) [TRG 2414-59]
– | 52.6 | no fit | – | COc1cccc(CNCC2c3ccccc3CN(CCCCC(CN)NCC(C)c3ccc(CC(C)C)cc3)C2c2cc(C(F)(F)F)cc(C(F)(F)F)c2)c1 (centres unmarked) [TRG 2414-60]
10.5 | 1.67 | – | – | COc1ccc(CNCC2c3ccccc3CN(CCCCC(N)CN)C2c2cc(C(F)(F)F)cc(C(F)(F)F)c2)cc1 (centres unmarked) [TRG 2414-61]
15.5 | 6.87 | – | – | COc1ccc(CNCC2c3ccccc3CN(CCCCC(CN)NCCc3ccccc3)C2c2cc(C(F)(F)F)cc(C(F)(F)F)c2)cc1 (centres unmarked) [TRG 2414-62]
14.5 | 5.34 | – | – | COc1ccc(CNCC2c3ccccc3CN(CCCCC(CN)NCc3ccccc3)C2c2cc(C(F)(F)F)cc(C(F)(F)F)c2)cc1 (centres unmarked) [TRG 2414-63]
34.5 | 45.5 | – | – | COc1ccc(CNCC2c3ccccc3CN(CCCCC(CN)NCC(C)c3ccc(CC(C)C)cc3)C2c2cc(C(F)(F)F)cc(C(F)(F)F)c2)cc1 (centres unmarked) [TRG 2414-64]
3.3 | 0.26 | – | – | COc1ccc(CCNCC2c3ccccc3CN(CCCCC(N)CN)C2c2cc(C(F)(F)F)cc(C(F)(F)F)c2)cc1 (centres unmarked) [TRG 2414-65]
10.5 | 3.2 | – | – | COc1ccc(CCNCC2c3ccccc3CN(CCCCC(CN)NCCc3ccccc3)C2c2cc(C(F)(F)F)cc(C(F)(F)F)c2)cc1 (centres unmarked) [TRG 2414-66]
0.033 | 5.21 | – | – | COc1ccc(CCNCC2c3ccccc3CN(CCCCC(CN)NCc3ccccc3)C2c2cc(C(F)(F)F)cc(C(F)(F)F)c2)cc1 (centres unmarked) [TRG 2414-67]
– | 17.7 | no fit | – | COc1ccc(CCNCC2c3ccccc3CN(CCCCC(CN)NCC(C)c3ccc(CC(C)C)cc3)C2c2cc(C(F)(F)F)cc(C(F)(F)F)c2)cc1 (centres unmarked) [TRG 2414-68]
9.45 | 0.64 | – | – | NCC(N)CCCCN1Cc2ccccc2C(CNCc2ccccc2)C1c1cc(C(F)(F)F)cc(C(F)(F)F)c1 (centres unmarked) [TRG 2414-69]
18.3 | 9.29 | – | – | NCC(CCCCN1Cc2ccccc2C(CNCc2ccccc2)C1c1cc(C(F)(F)F)cc(C(F)(F)F)c1)NCCc1ccccc1 (centres unmarked) [TRG 2414-70]
17 | 9.06 | – | – | NCC(CCCCN1Cc2ccccc2C(CNCc2ccccc2)C1c1cc(C(F)(F)F)cc(C(F)(F)F)c1)NCc1ccccc1 (centres unmarked) [TRG 2414-71]
– | 44.2 | no fit | – | CC(C)Cc1ccc(C(C)CNC(CN)CCCCN2Cc3ccccc3C(CNCc3ccccc3)C2c2cc(C(F)(F)F)cc(C(F)(F)F)c2)cc1 (centres unmarked) [TRG 2414-72]
5.77 | 1.01 | – | – | NCC(N)CCCCN1Cc2ccccc2C(CNC2CCCCCC2)C1c1cc(C(F)(F)F)cc(C(F)(F)F)c1 (centres unmarked) [TRG 2414-73]
11.2 | 4.57 | – | – | NCC(CCCCN1Cc2ccccc2C(CNC2CCCCCC2)C1c1cc(C(F)(F)F)cc(C(F)(F)F)c1)NCCc1ccccc1 (centres unmarked) [TRG 2414-74]
1.92 | 3.24 | – | – | NCC(CCCCN1Cc2ccccc2C(CNC2CCCCCC2)C1c1cc(C(F)(F)F)cc(C(F)(F)F)c1)NCc1ccccc1 (centres unmarked) [TRG 2414-75]
– | 54.4 | no fit | – | CC(C)Cc1ccc(C(C)CNC(CN)CCCCN2Cc3ccccc3C(CNC3CCCCCC3)C2c2cc(C(F)(F)F)cc(C(F)(F)F)c2)cc1 (centres unmarked) [TRG 2414-76]
3.86 | 0.63 | – | – | NCC(N)CCCCN1Cc2ccccc2C(CNC2CCCCC2)C1c1cc(C(F)(F)F)cc(C(F)(F)F)c1 (centres unmarked) [TRG 2414-77]
6.28 | 4.26 | – | – | NCC(CCCCN1Cc2ccccc2C(CNC2CCCCC2)C1c1cc(C(F)(F)F)cc(C(F)(F)F)c1)NCCc1ccccc1 (centres unmarked) [TRG 2414-78]
10.4 | 4.99 | – | – | NCC(CCCCN1Cc2ccccc2C(CNC2CCCCC2)C1c1cc(C(F)(F)F)cc(C(F)(F)F)c1)NCc1ccccc1 (centres unmarked) [TRG 2414-79]
23.7 | 27 | – | – | CC(C)Cc1ccc(C(C)CNC(CN)CCCCN2Cc3ccccc3C(CNC3CCCCC3)C2c2cc(C(F)(F)F)cc(C(F)(F)F)c2)cc1 (centres unmarked) [TRG 2414-80]
31.5 | – | – | no fit | NCC(CCCCN1Cc2ccccc2C(CNCc2ccccc2C(F)(F)F)C1c1cccc(Oc2ccccc2)c1)NCc1ccccc1 (centres unmarked) [TRG 2414-83]
– | – | no fit | no fit | CC(C)Cc1ccc(C(C)CN[C@H](CN)CCCCN2Cc3ccccc3C(CNCc3ccccc3C(F)(F)F)C2c2cccc(Oc3ccccc3)c2)cc1 (some centres unmarked) [TRG 2414-84]
